# Source: patent US20220000110A1, “COMPOSITIONS COMPRISING PYRIDINE CARBOXYLATE HERBICIDES AND CELLULOSE BIOSYNTHESIS INHIBITOR HERBICIDES” (priority 2018, published 2022)
# Legend:
# Assay in all cases: Greenhouse postemergence herbicidal effect, visual injury after 20-22 d
# Format in all cases: in vivo
# [1] = test system: Amaranthus retroflexus (pigweed); details: AMARE
# Source text: (§1) Greenhouse Trial Methodology—Evaluation of Postemergence Herbicidal Effect
# (§2) Seeds of the desired test plant species were planted in a 90:10% v/v (volume/volume) mixture of PRO-MIX® BX (Premier Tech Horticulture, Quakertown, Pa., USA) and PROFILE® GREENS GRADE™ (Profile Products LLC, Buffalo Grove, Ill., USA) planting mixture, which typically has a pH of 5.2 to 6.2 and an organic matter content of at least 50 percent, in plastic pots with a surface area of 103.2 square centimeters (cm^2). In some aspects, to help ensure good germination and healthy plants, a fungicide treatment and/or other chemical or physical treatment was applied. The plants were grown for 7-36 days (d) in a greenhouse with an approximate 14-hour (h) photoperiod which was maintained at about 23° C. during the day and 22° C. during the night. Nutrients and water were added on a regular basis and supplemental lighting was provided with overhead metal halide 1000-Watt lamps as necessary. The plants were employed for testing when they reached the second or third true leaf stage.
# (§3) Emulsifiable concentrates of each of each pyridine carboxylate herbicide (Compound A or Compound B) were prepared at 100 grams acid equivalent per liter (g ae/L). The emulsifiable concentrates also included a safener, at 120 grams active ingredient per liter (g ai/L). An aliquot of each emulsifiable concentrate was placed in a 25 mL glass vial and diluted with an aqueous mixture of 1.25% (v/v) ACTIROB® B esterified rapeseed oil (Bayer Crop Science, Research Triangle Park, N.C., USA) or MSO® Concentrate with LECI-TECH® methylated soybean oil (Loveland Products, Loveland, Colo., USA) to obtain concentrated stock solutions at the highest application rate for each herbicide, based upon a 12 milliliter (mL) application volume at a rate of 187 liters per hectare (L/ha). The concentrated stock solutions were further diluted with an aqueous mixture of 1.25% v/v ACTIROB® B or MSO® Concentrate with LECI-TECH® to obtain stock solutions at reduced application rates for each herbicide. Spray solutions of the herbicide combinations (Compound A or Compound B plus the CBI herbicide) were prepared by adding weighed amounts or aliquots of the CBI herbicide to the stock solutions of Compound A or Compound B to form 12-mL spray solutions in two-way combinations.
# (§4) The spray solutions were applied to the plant material with an overhead Mandel track sprayer equipped with 8002E nozzles calibrated to deliver 187 L/ha over an application area of 0.503 square meters (m^2) at a spray height of 18 inches (43 centimeters (cm)) above the average plant canopy. Control plants were sprayed in the same manner with the solvent blank. All pyridine carboxylate herbicide (component a) application rates are given as “g ae/ha” and all CBI herbicide (component b) application rates are given as “g ai/ha.”
# (§5) The treated plants and control plants were placed in a greenhouse as described above and watered by sub-irrigation to prevent wash-off of the test compounds. After 20-22 d, the condition of the test plants as compared with that of the control plants was determined visually and scored on a scale of 0 to 100 percent where 0 corresponds to no injury and 100 corresponds to complete kill.
# [2] = test system: Chenopodium album L. (common lambsquarters); details: CHEAL
# Source text: as §1, §2, §3, §4, §5
# [3] = test system: Abutilon theophrasti (velvetleaf); details: ABUTH
# Source text: as §1, §2, §3, §4, §5
# [4] = test system: Echinochloa crus-galli (barnyard grass); details: ECHCG
# Source text: as §1, §2, §3, §4, §5
# [5] = test system: Ipomoea hederacea (ivyleaf morningglory); details: IPOHE
# Source text: as §1, §2, §3, §4, §5
# [6] = test system: Digitaria sanguinalis (large crabgrass); details: DIGSA
# Source text: as §1, §2, §3, §4, §5
# [7] = test system: Matricaria chamomilla (wild chamomile); details: MATCH
# Source text: as §1, §2, §3, §4, §5
# [8] = test system: Brassica napus (spring rape); details: BRSNN
# Source text: as §1, §2, §3, §4, §5
# [9] = test system: Salsola kali (Russian thistle); details: SASKR
# Source text: as §1, §2, §3, §4, §5
# Kochia scoparia (kochia) = details: KCHSC
# Source text: as §1, §2, §3, §4, §5
# [10] = test system: Cirsium arvense (Canadian thistle); details: CIRAR
# Source text: as §1, §2, §3, §4, §5
# [11] = test system: Lolium multiflorum (Italian rye grass); details: Table 2; LOLMU; Indaziflam 35 g/ha
# Source text: as §1, §2, §3, §4, §5
# [12] = test system: Viola tricolor (wild pansy); details: VIOTR
# Source text: as §1, §2, §3, §4, §5
# [13] = test system: Polygonum convolvulus (wild buckwheat); details: POLCO
# Source text: as §1, §2, §3, §4, §5
# [14] = test system: Brassica napus (winter rape); details: BRSNW
# Source text: as §1, §2, §3, §4, §5
# [15] = test system: Setaria faberi (giant foxtail); details: SETFA
# Source text: as §1, §2, §3, §4, §5
# [16] = test system: Rumex obtusifolius (broad-leaf dock); details: Table 1; RUMOB; Isoxaben 50 g/ha
# Source text: as §1, §2, §3, §4, §5
# [17] = test system: Euphorbia heterophylla (poinsettia); details: Table 1; EPHHL; Isoxaben 50 g/ha
# Source text: as §1, §2, §3, §4, §5
# [18] = test system: Stellaria media (chickweed); details: Table 1; STEME; Isoxaben 50 g/ha
# Source text: as §1, §2, §3, §4, §5
# [19] = test system: Helianthus annuus (common sunflower); details: Table 1; HELAN; Isoxaben 50 g/ha
# Source text: as §1, §2, §3, §4, §5
# [20] = test system: Oryza sativa (common rice); details: Table 1; ORYSA; Isoxaben 50 g/ha
# Source text: as §1, §2, §3, §4, §5
# [21] = test system: Sorghum vulgare (grain sorghum); details: Table 1; SORVU; Isoxaben 50 g/ha
# Source text: as §1, §2, §3, §4, §5
# Glycine max (soybean) = details: Table 1; GLXMA; Isoxaben 50 g/ha
# Source text: as §1, §2, §3, §4, §5
# [22] = test system: Cyperus esculentus (nutsedge); details: Table 1; CYPES; Isoxaben 50 g/ha
# Source text: as §1, §2, §3, §4, §5
compound,measurement,setting,value
"Cc1ccc2c(c1)[C@H](Nc1nc(N)nc(C(C)F)n1)[C@@H](C)C2 (some centres unmarked) [Indaziflam, indaziflam, reference compound]",Obs % visual injury,"[1]; Table 3, Indaziflam 35 g/ha",23%
same,Obs % visual injury,"[1]; Table 3, Indaziflam 70 g/ha",33%
same,Obs % visual injury,"[2]; Table 3, Indaziflam 35 g/ha",10%
same,Obs % visual injury,"[2]; Table 3, Indaziflam 70 g/ha",10%
same,Obs % visual injury,"[3]; Table 2, Indaziflam 35 g/ha",60%
same,Obs % visual injury,"[4]; Table 2, Indaziflam 35 g/ha",0%
same,Obs % visual injury,"[5]; Table 2, Indaziflam 35 g/ha",10%
same,Obs % visual injury,"[6]; Table 2, Indaziflam 35 g/ha",0%
same,Obs % visual injury,"[7]; Table 3, Indaziflam 35 g/ha",13%
same,Obs % visual injury,"[7]; Table 3, Indaziflam 70 g/ha",38%
same,Obs % visual injury,"[8]; Table 2, Indaziflam 35 g/ha",30%
same,Obs % visual injury,"[9]; Table 3, Indaziflam 35 g/ha",55%
same,Obs % visual injury,"[9]; Table 3, Indaziflam 70 g/ha",60%
same,Obs % visual injury,"Kochia scoparia (kochia); Table 2, Indaziflam 35 g/ha",40%
same,Obs % visual injury,"Kochia scoparia (kochia); Table 3, Indaziflam 35 g/ha",28%
same,Obs % visual injury,"Kochia scoparia (kochia); Table 3, Indaziflam 70 g/ha",30%
same,Obs % visual injury,"[10]; Table 2, Indaziflam 35 g/ha",5%
same,Obs % visual injury,[11],0%
same,Obs % visual injury,"[12]; Table 2, Indaziflam 35 g/ha",5%
same,Obs % visual injury,"[13]; Table 2, Indaziflam 35 g/ha",10%
same,Obs % visual injury,"[13]; Table 3, Indaziflam 35 g/ha",10%
same,Obs % visual injury,"[13]; Table 3, Indaziflam 70 g/ha",13%
same,Obs % visual injury,"[14]; Table 3, Indaziflam 35 g/ha",45%
same,Obs % visual injury,"[14]; Table 3, Indaziflam 70 g/ha",45%
same,Obs % visual injury,"[15]; Table 2, Indaziflam 35 g/ha",0%
"CCC(C)(CC)c1cc(NC(=O)c2c(OC)cccc2OC)on1 [Isoxaben, isoxaben, reference compound]",Obs % visual injury,[16],0%
same,Obs % visual injury,"[1]; Table 1, Isoxaben 50 g/ha",10%
same,Obs % visual injury,"[1]; Table 4, Isoxaben 50 g/ha",20%
same,Obs % visual injury,"[1]; Table 4, Isoxaben 100 g/ha",10%
same,Obs % visual injury,"[2]; Table 1, Isoxaben 50 g/ha",0%
same,Obs % visual injury,"[2]; Table 4, Isoxaben 50 g/ha",0%
same,Obs % visual injury,"[2]; Table 4, Isoxaben 100 g/ha",0%
same,Obs % visual injury,"[3]; Table 1, Isoxaben 50 g/ha",5%
same,Obs % visual injury,"[4]; Table 1, Isoxaben 50 g/ha",5%
same,Obs % visual injury,[17],15%
same,Obs % visual injury,"[5]; Table 1, Isoxaben 50 g/ha",3%
same,Obs % visual injury,[18],0%
same,Obs % visual injury,"[6]; Table 1, Isoxaben 50 g/ha",0%
same,Obs % visual injury,"[7]; Table 4, Isoxaben 50 g/ha",15%
same,Obs % visual injury,"[7]; Table 4, Isoxaben 100 g/ha",15%
same,Obs % visual injury,[19],18%
same,Obs % visual injury,"[8]; Table 1, Isoxaben 50 g/ha",55%
same,Obs % visual injury,"[9]; Table 4, Isoxaben 50 g/ha",0%
same,Obs % visual injury,"[9]; Table 4, Isoxaben 100 g/ha",5%
same,Obs % visual injury,[20],0%
same,Obs % visual injury,[21],8%
same,Obs % visual injury,"Kochia scoparia (kochia); Table 1, Isoxaben 50 g/ha",13%
same,Obs % visual injury,"Kochia scoparia (kochia); Table 4, Isoxaben 50 g/ha",5%
same,Obs % visual injury,"Kochia scoparia (kochia); Table 4, Isoxaben 100 g/ha",5%
same,Obs % visual injury,Glycine max (soybean),0%
same,Obs % visual injury,"[10]; Table 1, Isoxaben 50 g/ha",8%
same,Obs % visual injury,[22],0%
same,Obs % visual injury,"[12]; Table 1, Isoxaben 50 g/ha",0%
same,Obs % visual injury,"[13]; Table 1, Isoxaben 50 g/ha",0%
same,Obs % visual injury,"[13]; Table 4, Isoxaben 50 g/ha",0%
same,Obs % visual injury,"[13]; Table 4, Isoxaben 100 g/ha",0%
same,Obs % visual injury,"[14]; Table 4, Isoxaben 50 g/ha",53%
same,Obs % visual injury,"[14]; Table 4, Isoxaben 100 g/ha",60%
same,Obs % visual injury,"[15]; Table 1, Isoxaben 50 g/ha",5%
